From patent publication US8795632B2, “Disease animal model for chronic pain” (Astellas Pharma Inc., priority 2008, dated 2014)

How the values were obtained:
[1] = tested on: Sprague-Dawley rats; test: Muscle pressure pain threshold value after reserpine single administration; type: in vivo, rat; conditions: reserpine 3 mg/kg single s.c.
Protocol: Male Sprague-Dawley rats (Japan SLC, Hamamatsu, Japan) were used. Measurement of muscle pressure pain threshold value was carried out in the same manner as in Example 1. That is, a pressure stimulus of gradually increasing to 250 g at the maximum was added to the right hind leg gastrocnemius muscle of each rat. […] The measurement was carried out 3 times at each point of time of the measurement, and the average was used as the measurement value.
Influences of the reserpine single administration upon the muscle pressure pain threshold value, skin pain sensation threshold value, cold sensitivity and heat sensitivity were examined in accordance with the following protocol. […] The muscle pressure pain threshold value, skin pain sensation threshold value, cold sensitivity and heat sensitivity before the reserpine treatment (base lines) were measured and then they were divided into a solvent (0.5% acetic acid aqueous solution) group and a reserpine (3 mg/kg) group (the number of animals per group was 6). […] The muscle pressure pain threshold value, skin pain sensation threshold value, cold sensitivity and heat sensitivity of each rat were measured at the points of measurement time of acute phase after administration of the solvent or reserpine (2, 4, 8 and 24 hours) and chronic phase (2, 3, 5, 7, 10, 14 and 21 days).
All of the measured values were expressed as average value±standard error. […]

[2] = tested on: dopamine, norepinephrine and serotonin in the spinal cord, thalamus and prefrontal cortex; test: Amounts of dopamine, norepinephrine and serotonin in spinal cord, thalamus and prefrontal cortex after repeated administration of reserpine (HPLC-ECD); type: in vivo, rat
Protocol: Male Sprague-Dawley rats (7 weeks old, Japan SLC, Hamamatsu, Japan) were used as the animal.
A total of 96 rats were divided into 8 test schedules (collection of samples before administration and 1, 3, 5, 7, 10, 14 or 21 days after the final administration) and further divided each of them into a vehicle (0.5% acetic acid aqueous solution) administration group, a reserpine 0.1 mg/kg administration group, a 0.3 mg/kg administration group and a 1 mg/kg administration group, to 3 rats per group. As shown in Example 1, the vehicle or 0.1, 0.3 or 1 mg/kg of reserpine was repeatedly administered to each rat once a day for 3 days, and the brain and spinal cord were quickly collected 1, 3, 5, 7, 10, 14 or 21 days after the final administration. The thalamus and prefrontal cortex were separated from the brain on an ice-cold dish.
Regarding the sampling before administration, samples were collected before beginning of the repeated administration of vehicle or reserpine. The collected samples were quickly frozen and stored at −80° C. until their use in the measurements. On the day of the measurement, tissues of respective samples were subjected to wet weight measurement, homogenized in 0.2 M perchloric acid/0.1 mM EDTA-2Na solution using an ultrasonic homogenizer. After centrifugation at 15,000 g and at 4° C. for 15 minutes, the supernatant was adjusted to pH 3.5 using sodium acetate and filtered using a filter. Amounts of dopamine, norepinephrine and serotonin in these samples were measured using a high performance liquid chromatography (column: SC-50DS 30, 150 mm, Eicom Co., Ltd., Kyoto, Japan, mobile phase composition: 0.1 M sodium acetate buffer, 0.1 M citrate buffer, pH 3.5, 5 mg/l EDTA-2Na, 190 mg/l sodium octane sulfonic acid, 17% methanol) and an electrochemical detector (ECD-300, Eicom Co., Ltd., Kyoto, Japan). The measurement was carried out under conditions of flow rate 0.5 ml/min, applied voltage 750 mV and 25° C. Amounts of dopamine, norepinephrine and serotonin in the samples were quantified by comparing sample peak areas of respective standards measured on the same day of the sample measurement. All of the measured values were expressed as average value±standard error in the graphs, and unit of the measured values was set to ng/g tissue wet weight.
Statistical difference of the measured values between the reserpine administration group and the vehicle administration group in each test schedule was carried out by the two-way analysis of variance and the Bonferroni method. Probability value (P) of less than 5% was judged as statistically significant (P<0.05 was expressed as * in the graphs). In addition, average values of respective groups at each point of time were expressed as percentages of the average values of corresponding vehicle administration groups.

[3] = reserpine 0.1 mg/kg s.c. once a day for 3 days, 1 day after final administration
[4] = reserpine 0.3 mg/kg s.c. once a day for 3 days, 1 day after final administration
[5] = reserpine 1 mg/kg s.c. once a day for 3 days, 1 day after final administration
[6] = reserpine 1 mg/kg s.c. once a day for 3 days, after 21 days

**Q.** What does the source list for `COC(=O)[C@H]1[C@H]2C[C@@H]3c4[nH]c5cc(OC)ccc5c4CCN3C[C@H]2C[C@@H](OC(=O)c2cc(OC)c(OC)c(OC)c2)[C@@H]1OC` [reserpine]?
**A.** muscle pressure pain threshold value ([1]; after 2, 3, 5, 7 and 10 days): significantly reduced; muscle pressure pain threshold value ([1]; after 2, 4, 8 and 24 hours): significantly increased; amount of dopamine in the prefrontal cortex, % of the vehicle administration group [2, 3]: 49.1%; amount of dopamine in the spinal cord, % of the vehicle administration group [2, 3]: 46.4%; amount of dopamine in the thalamus, % of the vehicle administration group [2, 3]: 49.2%; amount of norepinephrine in the prefrontal cortex, % of the vehicle administration group [2, 3]: 10.2%; amount of norepinephrine in the spinal cord, % of the vehicle administration group [2, 3]: 19.1%; amount of norepinephrine in the thalamus, % of the vehicle administration group [2, 3]: 43.8%; amount of serotonin in the prefrontal cortex, % of the vehicle administration group [2, 3]: 42.0%; amount of serotonin in the spinal cord, % of the vehicle administration group [2, 3]: 45.4%; amount of serotonin in the thalamus, % of the vehicle administration group [2, 3]: 28.8%; amount of dopamine in the prefrontal cortex, % of the vehicle administration group [2, 4]: 21.4%; amount of dopamine in the spinal cord, % of the vehicle administration group [2, 4]: 26.3%; amount of dopamine in the thalamus, % of the vehicle administration group [2, 4]: 53.2%; amount of norepinephrine in the prefrontal cortex, % of the vehicle administration group [2, 4]: 0.7%; amount of norepinephrine in the spinal cord, % of the vehicle administration group [2, 4]: 2.6%; amount of norepinephrine in the thalamus, % of the vehicle administration group [2, 4]: 6.1%; amount of serotonin in the prefrontal cortex, % of the vehicle administration group [2, 4]: 15.5%; amount of serotonin in the spinal cord, % of the vehicle administration group [2, 4]: 15.7%; amount of serotonin in the thalamus, % of the vehicle administration group [2, 4]: 14.8%; amount of dopamine in the prefrontal cortex, % of the vehicle administration group [2, 5]: 13.4%; amount of dopamine in the spinal cord, % of the vehicle administration group [2, 5]: 18.4%; amount of dopamine in the thalamus, % of the vehicle administration group [2, 5]: 24.5%; amount of norepinephrine in the prefrontal cortex, % of the vehicle administration group [2, 5]: 0.2%; amount of norepinephrine in the spinal cord, % of the vehicle administration group [2, 5]: 0.6%; amount of norepinephrine in the thalamus, % of the vehicle administration group [2, 5]: 1.2%; amount of serotonin in the prefrontal cortex, % of the vehicle administration group [2, 5]: 4.6%; amount of serotonin in the spinal cord, % of the vehicle administration group [2, 5]: 0.1%; amount of serotonin in the thalamus, % of the vehicle administration group [2, 5]: 8.9%; amount of dopamine in the prefrontal cortex, % of the vehicle administration group [2, 6]: 54.9%; amount of dopamine in the spinal cord, % of the vehicle administration group [2, 6]: 70.1%; amount of dopamine in the thalamus, % of the vehicle administration group [2, 6]: 66.5%; amount of norepinephrine in the prefrontal cortex, % of the vehicle administration group [2, 6]: 29.1%; amount of norepinephrine in the spinal cord, % of the vehicle administration group [2, 6]: 59.4%; amount of norepinephrine in the thalamus, % of the vehicle administration group [2, 6]: 46.0%; amount of serotonin in the prefrontal cortex, % of the vehicle administration group [2, 6]: 47.0%; amount of serotonin in the spinal cord, % of the vehicle administration group [2, 6]: 67.8%; amount of serotonin in the thalamus, % of the vehicle administration group [2, 6]: 60.7%
